No end group written: not given here.
Legend:
Colletotrichum acutatum = test: Test for resistance to disease in strawberry plants (anthracnose); type: in vivo; conditions: salicylic acid 5 mM; acibenzolar-s-methyl 1 mM
Procedure: Healthy plants of the cv“Pájaro” (“Bird”) 3 months old of Fragaria×ananassa from in vitro tissue cultures, with the FLs compounds at a preferred concentration of 0.03 μg/ml were sprayed and 5 days later they were exposed to the pathogen fungus Colletotrichum acutatum, causative agent of the anthracnose disease (European Journal of Plant Pathology, (2007) 117, 109-122). The infected plants were incubated in a growth chamber under optimal conditions for the proliferation of the fungi and the development of the disease (28° C., 80% of relative humidity and a photoperiod of 16 hours). Seven days after incubation, the gravity symptoms of petiole disease were assessed according to the scale proposed by Delp and Milholland (Plant Disease, (1980), 64(12), 1071-1073), that assigns values of gravity comprised between 1 (healthy plant) and 5 (very grave or dead plant). As positive controls of the induction of a defense against pathogens, the treatment with FLs was replaced by salicylic acid 5 mM or 1 mM of […] or BTH, a salicylic acid analogous that induces a […] defense in plants. It is worth noting that the FLs, BTH and salicylic acid concentrations used were subinhibitory for C. acutatum growth. As a negative control of defense induction, the plants were sprayed with sterile distilled water.

[1] = test system: Colletotrichum gloeosporioides L9; conditions: described values; cited from earlier work
[2] = test system: Colletotrichum fragariae F7; conditions: described values; cited from earlier work
Listeria monocytogenes = conditions: described values; cited from earlier work
Micrococcus sp. = conditions: described values; cited from earlier work
Rhodococcus fascians = conditions: values described for other antimicrobial compounds; cited from earlier work
Bacillus subtilis = conditions: described values; cited from earlier work
Xanthomonas fragariae = conditions: described values; cited from earlier work
P. digitatum (blue mold) = test: Test for resistance to diseases in strawberry fruits, controlled conditions of growth; type: in vivo, Penicillum digitatum; conditions: FLs 10 μg/ml, HeT 0.8 mg/ml, sodium hypochlorite 4%
Procedure: (§1) Fruits inoculated under controlled conditions of growth: Healthy and ripe strawberries collected in the field were disinfected by means of washing in ethanol at 70%, sodium hypochlorite at 10% and sterile water. The disinfected fruits were immersed in an FLs solution (10 μg/ml) and incubated at 25° C., 90% of humidity and 16 hours of photoperiod. After 2 days of incubation, the surface of the treated fruits was inoculated with a fungus spore suspension of 20 μl ([…]) of B. cinerea or P. digitatum, and were incubated in the same growth conditions above described. Seven days after the pathogen inoculation, the incidence (% of infected fruits) and the severity (degree of affected fruit surface) of the disease were assessed. The fruits sprayed with a solution of sodium hypochlorite at 4% were used as a protection positive control and the sterile fruits treated with water, as negative controls. Besides, a treatment with the plant defense inducer HeT (0.8 mg/ml) was included. The FL and HeT concentrations were subinhibitory for fungal growth.

B. cinerea (gray mold) = test: as above; type: in vivo, Botrytis cinerea; conditions: FLs 10 μg/ml, HeT 0.8 mg/ml, sodium hypochlorite 4%
Procedure: as §1

[3] = test system: C. michiganensis cytoplasmic membrane; test: Test for depolarization of membranes, diSC3(5) fluorescence; type: cell-based; conditions: FLs 60 μg/ml; valinomycin 1 μM; C. michiganensis cells
Procedure: To study the possible mechanism underlying the FLs antimicrobial activity, the effect of the application of FLs upon C. michiganensis cytoplasmic membrane was assessed (FIG. 4), by using the cyanine stain method with 3,3′-Dipropylthiadicarbocianine iodide (diSC3 (5)) (Biochemistry (1999), 38(22), 7235-7242.).
The depolarization of the membrane in the bacterium C. michiganensis as controlled through changes in the intensity of the fluorescence emission of the diSC3 (5) membrane-sensitive stain (Biochemistry, (1999), 38(22), 7235-7242.). C. michiganensis was grown in LB liquid medium and incubated in a stirrer (120 rpm) at 26° C., up to the growth in a median logarithmic phase (OD600=0.5). The harvested cells were centrifuged and washed once (glucose 5 mM and HEPES 20 mM pH 7.3) and were suspended again up to a final OD600 final=0.05 in the same buffer. […]
After the addition of 0.4 μM de diSC3 (5), the sample cells that contained bacterial cells were incubated at 26° C. until a stable reduction of the fluorescence (about 5 minutes) was reached, what indicated the incorporation of the stain into the bacterial membrane. Afterwards, the FLs, valinomycin or water were added and the stain fluorescence increase at 622 nm (excitation wavelength) and 670 nm (emission wavelength) with a RF-5301 PC spectrofluorometer (Shimadzu, Kyoto, Japan) was recorded. […]

[4] = test system: Staphylococcus epidermidis; conditions: described values; cited from earlier work
[5] = test system: Enterococcus faecium CRL35; conditions: described values; cited from earlier work
Staphylococcus aureus = conditions: described values; cited from earlier work
Escherichia coli MC 4100 = conditions: described values; cited from earlier work
Proteus sp. = conditions: described values; cited from earlier work
Citrobacter sp. = conditions: described values; cited from earlier work
Pseudomona aeruginosa = conditions: described values; cited from earlier work
Salmonella Newport = conditions: described values; cited from earlier work
[6] = test system: Colletotrichum acutatum M11; conditions: described values; cited from earlier work
Botritys cinerea = conditions: described values; cited from earlier work
Penicillum digitatum = conditions: described values; cited from earlier work
P. digitatum = test: Protection against postharvest diseases in fruits of lemon tree, preventive effect; type: in vivo, Penicillum digitatum; conditions: Imazalil 500 ppm

Molecule: O=C(O)c1ccccc1O [salicylic acid]
- protection against anthracnose compared with FLs (Colletotrichum acutatum): comparable

Molecule: CCCCNC(=O)n1c(NC(=O)OC)nc2ccccc21 [Benomyl]
- CE50 (μg/ml) for commercial antimicrobial [1]: Benomyl 0.29 μg/ml
- CE50 (μg/ml) for commercial antimicrobial [2]: Benomyl 0.29 μg/ml

Molecule: CC[C@H]1OC(=O)[C@H](C)[C@@H](O[C@H]2C[C@@](C)(OC)[C@@H](O)[C@H](C)O2)[C@H](C)[C@@H](O[C@@H]2O[C@H](C)C[C@H](N(C)C)[C@H]2O)[C@](C)(O)C[C@@H](C)CN(C)[C@H](C)[C@@H](O)[C@]1(C)O [Azythromicin]
- CE50 (μg/ml) for commercial antimicrobial (Listeria monocytogenes): Azythromicin 0.5 μg/ml
- CE50 (μg/ml) for commercial antimicrobial (Micrococcus sp.): Azythromicin 0.12 μg/ml
- CE50 (μg/ml) for commercial antimicrobial (Rhodococcus fascians): Azythromicin 0.5 μg/ml
- CE50 (μg/ml) for commercial antimicrobial (Bacillus subtilis): Azythromicin 2 μg/ml

Molecule: CC[C@H]1OC(=O)[C@H](C)[C@@H](O[C@H]2C[C@@](C)(OC)[C@@H](O)[C@H](C)O2)[C@H](C)[C@@H](O[C@@H]2O[C@H](C)C[C@H](N(C)C)[C@H]2O)[C@](C)(O)C[C@@H](C)C(=O)[C@H](C)[C@@H](O)[C@]1(C)O [Erythromycin]
- CE50 (μg/ml) for commercial antimicrobial (Listeria monocytogenes): Erythromycin 0.25 μg/ml
- CE50 (μg/ml) for commercial antimicrobial (Micrococcus sp.): Erythromycin 0.12 μg/ml
- CE50 (μg/ml) for commercial antimicrobial (Rhodococcus fascians): Erythromycin 0.25 μg/ml
- CE50 (μg/ml) for commercial antimicrobial (Bacillus subtilis): Erythromycin 0.25 μg/ml

Molecule: Cecropin B (KWKVFKKIEKMGRNIRNGIVKAGPAIAVLGEAKAL; ends and bridges not checked; UniProt P01508 27-61, looked up) [commercial antimicrobial]
- CE50 (μg/ml) for commercial antimicrobial (Xanthomonas fragariae): Cecropin B 0.04 μg/ml

Molecule: OCl [sodium hypochlorite, reference compound]
- reduction of blue mold incidence (P. digitatum (blue mold)): 50%
- reduction of blue mold severity (P. digitatum (blue mold)): 40%
- reduction of gray mold incidence (B. cinerea (gray mold)): 70%
- reduction of gray mold severity (B. cinerea (gray mold)): 45%

Molecule: CC[C@H]1OC(=O)[C@H](C)[C@@H](O[C@H]2C[C@@](C)(OC)[C@@H](O)[C@H](C)O2)[C@H](C)[C@@H](O[C@@H]2O[C@H](C)C[C@H](N(C)C)[C@H]2O)[C@](C)(OC)C[C@@H](C)C(=O)[C@H](C)[C@@H](O)[C@]1(C)O [Clarythromicin]
- CE50 (μg/ml) for commercial antimicrobial (Listeria monocytogenes): Clarythromicin 0.12 μg/ml
- CE50 (μg/ml) for commercial antimicrobial (Micrococcus sp.): Clarythromicin 0.06 μg/ml
- CE50 (μg/ml) for commercial antimicrobial (Rhodococcus fascians): Clarythromicin 0.06 μg/ml
- CE50 (μg/ml) for commercial antimicrobial (Bacillus subtilis): Clarythromicin 0.12 μg/ml

Molecule: CC(C)[C@@H]1NC(=O)[C@H](C)OC(=O)[C@@H](C(C)C)NC(=O)[C@@H](C(C)C)OC(=O)[C@H](C(C)C)NC(=O)[C@H](C)OC(=O)[C@@H](C(C)C)NC(=O)[C@@H](C(C)C)OC(=O)[C@H](C(C)C)NC(=O)[C@H](C)OC(=O)[C@@H](C(C)C)NC(=O)[C@@H](C(C)C)OC1=O [valinomycin, reference compound]
- increase of diSC3 (5) fluorescence (membrane depolarization) [3]: induced a fluorescence increase similar to the one seen with the FL compound

Molecule: CN[C@H](CC(C)C)C(=O)N[C@H]1C(=O)N[C@@H](CC(N)=O)C(=O)N[C@H]2C(=O)N[C@H]3C(=O)N[C@H](C(=O)N[C@H](C(=O)O)c4cc(O)cc(O)c4-c4cc3ccc4O)[C@H](O)c3ccc(c(Cl)c3)Oc3cc2cc(c3O[C@@H]2O[C@H](CO)[C@@H](O)[C@H](O)[C@H]2O[C@H]2C[C@](C)(N)[C@H](O)[C@H](C)O2)Oc2ccc(cc2Cl)[C@H]1O [Vancomycin]
- CE50 (μg/ml) for commercial antimicrobial [4]: Vancomycin 1.56 μg/ml
- CE50 (μg/ml) for commercial antimicrobial [5]: Vancomycin 0.78 μg/ml
- CE50 (μg/ml) for commercial antimicrobial (Staphylococcus aureus): Vancomycin 0.78 μg/ml

Molecule: C[C@@H](O)[C@H]1C(=O)N2C(C(=O)O)=C(S[C@@H]3CN[C@H](C(=O)N(C)C)C3)[C@H](C)[C@H]12 [Meropenem]
- CE50 (μg/ml) for commercial antimicrobial (Escherichia coli MC 4100): Meropenem 0.01 μg/ml
- CE50 (μg/ml) for commercial antimicrobial (Proteus sp.): Meropenem 0.1 μg/ml
- CE50 (μg/ml) for commercial antimicrobial (Citrobacter sp.): Meropenem 0.02 μg/ml
- CE50 (μg/ml) for commercial antimicrobial (Pseudomona aeruginosa): Meropenem 0.2 μg/ml

Molecule: NCC[C@H](O)C(=O)N[C@@H]1C[C@H](N)[C@@H](O[C@H]2O[C@H](CN)[C@@H](O)[C@H](O)[C@H]2O)[C@H](O)[C@H]1O[C@H]1O[C@H](CO)[C@@H](O)[C@H](N)[C@H]1O [Amikasin]
- CE50 (μg/ml) for commercial antimicrobial (Salmonella Newport): Amikasin 2 μg/ml

Molecule: O=C1C2CC=CCC2C(=O)N1SC(Cl)(Cl)Cl (stereo not shown) [Captan]
- CE50 (μg/ml) for commercial antimicrobial [6]: Captan 1 μg/ml

Molecule: CSC(=O)c1cccc2nnsc12 [acibenzolar-s-methyl]
- protection against anthracnose compared with FLs (Colletotrichum acutatum): comparable

Molecule: C=CCOC(Cn1ccnc1)c1ccc(Cl)cc1Cl (stereo not shown) [Imazalil]
- CE50 (μg/ml) for commercial antimicrobial (Botritys cinerea): Imazalil 8 μg/ml
- CE50 (μg/ml) for commercial antimicrobial (Penicillum digitatum): Imazalil 6 μg/ml
- protection of lemons compared with FLs 0.1 mg/ml (P. digitatum): comparable

— patent US12185721B2, “Glycoside compound of fatty acids, composition comprising it, process for its obtention and methods to apply it on plants or fruits or both at the same time” (Consejo Nacional de Investigaciones Científicas y Técnicas …, priority 2020, dated 2025)
